Data as given in paper PMC5377441 (International Journal for Parasitology: Drugs and Drug …, 2017).
Read-outs that look alike come from different tables or passages of the source. Marks after values point to notes of the source that are not given here.

Columns and labels:
[1] = tested on: T. muris; assay: In vitro drug uptake and elimination by T. muris; format: in vitro ADME, Trichuris muris; details: 24 h
[2] = format: in vivo, C57BL/10 mice
[3] = tested on: T. muris; assay: Drug uptake by T. muris in vivo; parameters: species or system Trichuris muris in C57BL/10 mice
[4] = tested on: adult H. polygyrus; details: 100 μM, 72 h; ref Unpublished data; cited from earlier work
[5] = tested on: H. polygyrus; details: oral 100 mg/kg; ref Unpublished data; cited from earlier work
[6] = tested on: adult T. muris; details: incubation at >600 μM, 72 h; ref Keiser et al., 2012; cited from earlier work
[7] = tested on: T. muris; details: oral 150 mg/kg; ref Keiser et al., 2013; cited from earlier work
[8] = tested on: trichuriasis; details: ref Keiser and Utzinger, 2008; cited from earlier work

`COC(=O)Nc1nc2ccc(C(=O)c3ccccc3)cc2[nH]1` [Mebendazole, mebendazole] showed an MBZ in worms ([1]; incubation at 5 μM) of 482 ± 388 nmol/10 worms, an MBZ in worms ([1]; incubation at 10 μM) of 626 ± 463 nmol/10 worms and an MBZ in worms ([1]; incubation at 25 μM) of 672 ± 251 nmol/10 worms. For the same compound, the MBZ in worms ([1]; incubation at 50 μM) was 826 ± 390 nmol/10 worms, the MBZ in worms ([1]; incubation at 75 μM) was 910 ± 362 nmol/10 worms and the MBZ in worms ([1]; incubation at 100 μM) was 861 ± 503 nmol/10 worms. For the same compound, the concentration at 2 h ([2]; C57BL/10, mouse, plasma, intraperitoneal, 100 mg/kg) was 3.6 µM, the “mebendazole in the mucosa of the large intestine” value ([2]; intraperitoneal 100 mg/kg, 2 h) was 1 µmol/g and the “mebendazole in the mucosa of the small intestine” value ([2]; intraperitoneal 100 mg/kg, 2 h) was 4 µmol/g. The “administered drug in the large intestine” value ([2]; oral 100 mg/kg, 2 h) was 18 µmol/g, the “administered drug in the mucosa of the large intestine” value ([2]; oral 100 mg/kg, 2 h) was 3 µmol/g and the “administered drug in the mucosa of the small intestine” value ([2]; oral 100 mg/kg, 2 h) was 8 µmol/g. For the same compound, the “administered drug in the small intestine” value ([2]; oral 100 mg/kg, 2 h) was 222 µmol/g, the “administered drug in the stomach” value ([2]; oral 100 mg/kg, 2 h) was 215 µmol/g and the “administered drug in the large intestine” value ([2]; oral 100 mg/kg, 5 h) was 100 µmol/g. For the same compound, the “administered drug in the mucosa of the large intestine” value ([2]; oral 100 mg/kg, 5 h) was 5 µmol/g, the “administered drug in the mucosa of the small intestine” value ([2]; oral 100 mg/kg, 5 h) was 6 µmol/g and the “administered drug in the large intestine” value ([2]; oral 100 mg/kg, 8 h) was 40 µmol/g. The “administered drug in the mucosa of the large intestine” value ([2]; oral 100 mg/kg, 8 h) was 2 µmol/g, the “administered drug in the mucosa of the small intestine” value ([2]; oral 100 mg/kg, third value, time not given) was 4 µmol/g and the “drug quantity in worms, maximum” value ([3]; in vivo) was ≤ 21 nmol per ten T. muris. The mebendazole in worms ([3]; intraperitoneal 100 mg/kg, 2 h) was 5 nmol/10 worms, the mebendazole in worms ([3]; oral 100 mg/kg, unchanged over time, close to LLOQ) was 20 nmol/10 worms and the Drug effect [4] was 0% [100 μM] ^a. The Worm burden reduction [5] was 59% [100 mg/kg] ^a, the Drug effect [6] was <50% ^b and the Worm burden reduction [7] was 68% [150 mg/kg] ^c. For the same compound, the cure rate [8] was “below 36%”.
